Experimental data as given in patent US20110045520A1, “FATTY ACID MARKERS FOR THE DIAGNOSIS, PROGNOSIS AND MANAGEMENT OF CARDIOVASCULAR DISEASE” (priority 2007, published 2011).

Target: T1, human serum albumin (HSA) in pooled normal serum (Homo sapiens, UniProt P02768)
T1 construct: from tissue; host or cells: pooled normal human serum
Test: Cobalt binding assay, HSA in pooled normal serum incubated with individual unesterified fatty acids
Conditions: fatty acid:HSA molar ratios of about 8; most apparent with HSA in pooled normal serum
Procedure: The concentrations of twelve unesterified fatty acids were measured in vitro to determine if differences in individual fatty acid levels affect Co(II)—albumin interactions in the cobalt binding assay. The effect of individual fatty acid concentrations on HSA was evaluated in the presence of HSA from two different sources: (1) purified commercial HSA with defined buffer conditions, and (2) USA in pooled normal serum. The cobalt binding assays were performed after incubation of HSA with each unesterified fatty acid for 12 hours at room temperature. The concentrations of the individual FFAs were determined by measuring total FFAs levels before and after the addition of the specific FFAs to pooled normal serum. HSA concentrations were measured by standard colorimetric protein assays. Molar ratios were calculated from the concentration values determined for the individual specific FFAs with respect to the concentrations of HSA measured in each sample.

T1 sequence (P02768 25-609): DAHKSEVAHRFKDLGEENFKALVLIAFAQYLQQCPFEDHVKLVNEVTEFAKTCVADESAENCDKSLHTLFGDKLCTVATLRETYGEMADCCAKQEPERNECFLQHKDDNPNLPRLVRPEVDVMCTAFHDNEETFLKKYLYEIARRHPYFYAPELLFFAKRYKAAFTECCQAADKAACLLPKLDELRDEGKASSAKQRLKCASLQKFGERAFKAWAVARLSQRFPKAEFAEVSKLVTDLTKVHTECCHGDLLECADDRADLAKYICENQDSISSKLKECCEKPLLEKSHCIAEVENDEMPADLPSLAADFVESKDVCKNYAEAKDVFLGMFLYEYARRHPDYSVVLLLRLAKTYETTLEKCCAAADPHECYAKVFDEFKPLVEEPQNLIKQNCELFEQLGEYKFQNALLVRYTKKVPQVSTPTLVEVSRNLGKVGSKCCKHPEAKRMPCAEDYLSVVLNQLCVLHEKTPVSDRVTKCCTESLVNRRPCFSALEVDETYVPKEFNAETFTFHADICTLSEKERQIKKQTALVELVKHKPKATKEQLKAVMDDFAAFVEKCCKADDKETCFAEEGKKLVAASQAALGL

effect on the percent reduction of the Co[II]-HSA binding assay	SMILES
significant effect	CCCCC/C=C\C/C=C\C/C=C\C/C=C\CCCC(=O)O [Arachidonic acid]
significant effect	CCCCCCCC/C=C\CCCCCCCC(=O)O [Oleic acid]
